According to patent US20200179331A1, “Peptide-Artesunate Conjugates as Targeted Anti-Cancer Agents” (priority 2017, published 2020):
Where two headings read alike, the source gives them in different places. Residues, ends and D or L forms follow the SMILES beside them. *: point of attachment. X1 = C[C@H]1[C@H](OC(=O)CCC(=O)*)O[C@@H]2O[C@@]3(C)CC[C@H]4[C@H](C)CC[C@@H]1[C@@]24OO3

Key:
[1] = Dichlorofluorescein assay (reactive oxygen species formation with Fe2+); conditions: for reactive oxygen species formation, DCF fluorescence: 20 μM, Fe2+ 5-25 μM, 10 μM DCFH-DA, 30 min
Experimental: The assay was carried out following a reported procedure either in presence of hydrogen peroxide, Artesunate with and without Fe2+, and ART-HER2 conjugate with and without Fe2+[43]. In this assay non-fluorescent DCFH-DA (2′, 7′-Dichlorofluorescin diacetate treated with methanol and NaOH, as described in reference 43) is converted to a fluorescent derivative, known as dichlorofluorescein (DCF), in presence of an oxidizing agent (e.g. reactive oxygen species). By quantifying the concentration of fluorescent DCF, the concentration of oxidizing agent can be determined.
Formation of free radical species from the reaction of Artesunate with […] was additionally measured by dichlorofluorescein assays. Oxidation of 2′, 7′-Dichlorofluorescin diacetate (DCFH-DA) by reactive oxygen species generates dichlorofluorescein, which is fluorescent (˜520 nm).

[2] = reference [50]; cell line not given; read-out: IC50, anticancer ability of commonly used anticancer drugs; cited from earlier work
[3] = Deoxyribose degradation assay (free radical formation with Fe2+); conditions: 200 μM, Fe2+ 5-25 μM, 10 minutes
Experimental: This assay quantifies the formation of hydroxyl radicals or peroxyl radicals. The assay was carried out following a reported procedure. Briefly, 500 μL reaction volumes containing 10 mM 2-deoxyribose, 100 μM ascorbic acid, and various concentrations of Fe2+ were prepared. Degradation of 2-deoxyribose was initiated either by addition of 200 μM of hydrogen peroxide or 200 μM of Artesunate. The reaction was allowed to run for 10 minutes and then stopped by the addition of 500 μL of 10% (w/v) trichloroacetic acid (TCA) followed by 0.5 mL 1% 2-thiobarbituric acid (TBA). After heating at 80° C. for 15 minutes, the absorbance at 532 nm was measured.
To measure the concentration of free radical species generated by Artesunate reacting with Fe^2+, 2-deoxyribose degradation assays were formed (FIG. 6). Degradation of 2-deoxyribose by action of hydrogen peroxide is shown as a positive control and 2-deoxyribose alone is shown as a negative control (FIG. 6).

Caco-2 cells = experiment: MTT assay, Caco-2 cells (HER2-positive)
Experimental: (§1) CCD-18 cells were maintained in Dulbecco's minimal essential medium (DMEM, ATCC) supplemented with 10% fetal bovine serum (FBS, ATCC), 100 U/ml penicillin G, and 100 μg/ml streptomycin at 37° C. in a humid atmosphere of 5% CO2 atmosphere. Caco-2 cells were maintained in Dulbecco's minimal essential medium (DMEM, ATCC) supplemented with 20% fetal bovine serum (FBS,ATCC), 100 U/ml penicillin G, and 100 μg/ml streptomycin at 37° C. in a humid atmosphere of 5% CO2 atmosphere; culture medium was replaced with a fresh medium every 2-3 days. All experiments were performed with actively growing cells in logarithmic growth phase.
(§2) The assay was carried out following a reported procedure. In brief, approximately 1,000 to 5,000 cells were plated per well in 96-well plate. The plates were incubated at 37° C. for 48 or 72 hours in a humidified, 5% CO2 atmosphere. Cells were incubated either with Artesunate or with ART-HER2 conjugate at various concentrations. To measure mitochondrial activity, a metric for cell viability, 15 μL of [3-{4, 5-dimethylthiazol-2-yl)-2, 5-diphenyltetrazolium bromide (MTT) was added to each well and incubated at 37° C. for 4 hours in a humidified, 5% CO2 atmosphere. After incubation, 100 μl of the solubilization solution/stop mix was added to each well. The blue formazan product formed by reduction of MTT by mitochondrial dehydrogenase in viable cells was then measured by absorbance at 570 nm.
(§3) The cytotoxicity of Artesunate was then investigated with two human colon cell lines, a normal colon cell line CCD-18 and a cancerous colon cell line Caco-2, using the well-established MTT assay. […] Dose-dependent assays were performed in 96-well format and IC50 values were determined by plotting the cell viability against Artesunate concentration (FIG. 11 and FIG. 12).

HCT116 cells = experiment: Sulforhodamine B (SRB) colorimetric assay, HCT116 proliferation; format: cell-based; conditions: Homo sapiens, HCT-116, 96-well format, read-out: IC50, inhibition of the proliferation of HCT116 cells
Experimental: Mouse B16-F10 melanoma cancer cells and human HCT116 colon cancer cells were grown in culture respectively in DMEM medium or McCoy's 5 A medium supplemented with 10% fetal bovine serum and 5% antibiotic in a 5% CO2 atmosphere at 37° C. Cultures were divided 1:2 every 48 h to an approximate cell density of 1.2 million cells per ml and used for experiments after 24 hours of growth in culture.

[4] = MTT assay, CCD-18 cells (HER2-negative normal colon); conditions: human, CCD-18 cells (normal colon, HER2-negative)
Experimental: as §1
The assay was carried out following a reported procedure. In brief, approximately 1,000 to 5,000 cells were plated per well in 96-well plate. The plates were incubated at 37° C. for 48 or 72 hours in a humidified, 5% CO2 atmosphere. […] The blue formazan product formed by reduction of MTT by mitochondrial dehydrogenase in viable cells was then measured by absorbance at 570 nm.
as §3

[5] = MTT assay, Caco-2 cells (HER2-positive)
Experimental: as §1, §2, §3

OO [H2O2, hydrogen peroxide]
reactive oxygen species formation, DCF fluorescence [1]: Fe^2+-dependent activation of dichlorofluorescein fluorescence

O=c1[nH]cc(F)c(=O)[nH]1 [5-FU, 5-fluorouracil]
IC50 [2]: ~15 µM

N.N.O=C([O-])C1(C(=O)[O-])CCC1.[Pt+2] [carboplatin]
IC50 [2]: ~12 µM

C[C@H]1[C@H](OC(=O)CCC(=O)O)O[C@@H]2O[C@@]3(C)CC[C@H]4[C@H](C)CC[C@@H]1[C@@]24OO3 [Artesunate]
free radical generation, 2-deoxyribose degradation (absorbance 532 nm) [3]: reacts with Fe^2+ to generate free radical species that are sufficient to degrade 2-deoxyribose
fold higher toxicity against Caco-2 cells compared to CCD-18 cells (Caco-2 cells; Caco-2): ~5.7 fold
IC50 (Caco-2 cells; Homo sapiens, Caco-2, read-out: IC50, cytotoxicity against Caco-2 cells): ~0.97 µM
IC50 (HCT116 cells): ~0.63 µM
reactive oxygen species formation, DCF fluorescence [1]: Fe^2+-dependent activation of dichlorofluorescein fluorescence
IC50 [4]: ~5.6 µM

CC(C)C[C@H](NC(=O)[C@H](CO)NC(=O)[C@H](Cc1ccc(O)cc1)NC(=O)[C@H](CS)NC(=O)[C@H](CS)NC(=O)[C@H](CCCCN)NC(=O)CNC(=O)[C@H](CO)NC(=O)CNC(=O)CCC(=O)O[C@@H]1O[C@@H]2O[C@@]3(C)CC[C@H]4[C@H](C)CC[C@@H]([C@H]1C)[C@@]24OO3)C(N)=O [ART-HER2 conjugate] (X1-GSGKCCYSL-NH2)
IC50 [5]: ~15 µM
free radical species formation in presence of Fe2+ (in words) ([1]; 2-deoxyribose degradation and dichlorofluorescein assays, increasing Fe2+): increases in presence of increasing levels of Fe^+
